According to US20100248229A1, “INVITRO HUMAN EMBRYONIC MODEL AND A METHOD THEREOF” (Stempeutics Research Private Limited, priority 2007, published 2010):
Entries after “also recorded” stand apart in the source; their conditions may differ.

What was measured:
Format in all cases: cell-based, human
[1] = test system: EBs derived from hESC line HUES9; assay: Comet assay: DNA fragmentation in EBs; settings: EBs exposed for 48 hours
Description: Comet assay: Detection of DNA damage in individual EBs was carried out with a slight modification of the method described by. Comet tail length was calculated by measuring the streak of DNA comet tail between the edge of the embryoid bodies till the end of tail using Nikon Eclipse 90i microscope (Nikon Corporation, Japan) and Image-Pro Express software (Media Cybernetics, Inc, Silver Spring, Md.).

[2] = test system: EBs; assay: Differentiation of EBs into tissues of mesoderm origin / osteoblast differentiation (von Kossa, Alizarin Red); settings: for osteoblast differentiation (mineralization by Alizarin Red and von Kossa staining): 15 days of differentiation
Excerpt: The EBs were used to direct their differentiation into tissues of the ectoderm (nerve, skin), endoderm (pancreas, lungs), mesoderm (bone, blood, cardiomyocytes) and trophectoderm lineages (placenta) using known and published methods (Bader et al., 2000; Buttery et al., 2001; Lumelsky et al., 2001; Lee et al; 2000; Schuliner et al., 2001). A description of the methods used for differentiation of hESC to various tissues of the ectoderm, endoderm, mesoderm and trophectoderm lineages can be found in Hyslop et al. (2005). The ability of the compound/drug to inhibit the differentiation of EBs into these tissues of any particular type will indicate the possibility of developmental defect induced by the drug.
Endotoxins/LPS silenced the expression of mesoderm specific genes in the EBs. […] To confirm this effect the LPS exposed EBs were directed towards tissues of mesoderm origin like cardiomyocytes, blood or bone. […] This indicates the possibility of defects in the blood, bone or heart formation as a result of endotoxin exposure during fetal development.
EBs derived from the human embryonic stem cell (hESC) line HUES9 were exposed to 12.5 pg/ml of LPS for 48 hrs. The expression profile of the ectoderm, endoderm, mesoderm and trophectoderm lineage markers like βIII-tubulin, GATA4, BMP2, Brachury and β-hCG were studied, by RT-PCR and Immunofluorescence. Inhibition of mesoderm induction was confirmed by RT-PCR analysis for hANP, cTnT, ABCG2, GATA2, BMP4 and HAND1. Osteoblast differentiation was induced in the EBs, and confirmed by von Kosa and Alizarin red staining. A comet assay was also done to assess the degree of apoptosis in these EBs.
Osteoblast differentiation: To assess the differentiating potential of EBs towards tissues of mesoderm origin, embryoid bodies were produced and exposed to LPS as described above. The normal and LPS treated EBs, 30 each, were subjected to osteoblast differentiation from day 5.5 onwards. To stimulate differentiation into osteogenic cells, ES medium containing 10^−8 M Dexamethasone, 50 μg/ml L-ascorbic acid and 5 mM Sodium-beta-glycophosphate was used. The medium was changed every 2-3 days and the differentiation was continued upto 15 days. The osteoblast differentiation was characterized by identifying mineralized areas using von Kossa and Alizarin Red staining. These were visualized and acquired using a Nikon Eclipse 90i microscope (Nikon Corporation, Japan).

[3] = test system: HUES 9 EB; assay: Expression profiles of lineage, pluripotency, epigenetic and imprinted genes in day 4.5 spherical EBs (HUES 9); parameters: key: The sign ‘+’ indicates expression of the gene; the sign “−” indicates non-expression of the gene; settings: HUES 9 EB D4.5 LPS
Description: RT-PCR: Total RNA from cells was isolated using TRIZOL-LS Reagent (Invitrogen) as per the manufacturer's protocol. Complementary DNA was synthesized using the SuperScript III First-Strand Synthesis System (Invitrogen) as per the manufacturer's instructions. Polymerase Chain Reaction (PCR) was carried out using 1U Tag DNA Polymerase (Sigma) and MgCl2 to a final concentration of 1.5 mM in a total volume of 25 μl/reaction. β-actin and GAPDH were used as the housekeeping controls. PCR cycles consisted of an initial denaturation at 95° C. for 5 minutes followed by 35 amplification cycles of denaturation at 94° C. for 45 seconds, annealing for 45 seconds, and extension at 72° C. for 45 seconds and final extension at 72° C. for 10 minutes.
Examples of changes in the expression profiles/patterns of lineage markers, pluripotency markers, epigenetic markers and imprinted genes, in day 4.5 spherical cavitating/cytic embryoid bodies upon exposure to compounds like lipopolysaccharide (LPS), Rho kinase inhibitor (Y27632), Azacytidine (Aza), and biologicals like an Uvomorulin antibody (UVO) are given in the table nos. 9-12 below. The sign ‘+’ indicates expression of the gene and the sign “−” indicates non-expression of the gene.

[4] = EBs pre-exposed to 12.5 pg/ml for 48 hrs

lipopolysaccharide [LPS]
DNA tailing or fragmentation compared to control [1]: more DNA tailing or fragmentation | DNA tailing or fragmentation (comet tail length, average) ([1]; control 2.48±1.0701 μm): 21.48±12.443 μm | efficiency for attachment and proliferation during induction of osteogenic differentiation, treated vs control EBs [2, 4]: no differences were found | osteoblast differentiation (mineralization by Alizarin Red and von Kossa staining) [2, 4]: failed to differentiate into functional osteoblasts; also recorded: failed to undergo osteoblast differentiation | osteoblast differentiation (mineralization by Alizarin Red and von Kossa staining) ([2]; EBs pre-exposed to 12.5 pg/ml for 48 hrs, listed as lipopolysaccharides): absence of mineralization | differentiation of exposed EBs into tissues of mesoderm origin (cardiomyocytes, blood or bone) ([2]; LPS exposed EBs): failure to differentiate | ABCG2 gene expression ([3]; control +): − | BMP4 gene expression ([3]; control +): − | BRACHURY gene expression ([3]; control +): − | CDH1 gene expression ([3]; control +): − | Dlk1 gene expression ([3]; control +): − | GATA2 gene expression ([3]; control +): − | HAND1 gene expression ([3]; control +): − | SDHD gene expression ([3]; control +): − | cTNT gene expression ([3]; control +): − | hANP gene expression ([3]; control +): − | DPYS gene expression ([3]; control −): + | HMGB1 gene expression ([3]; control −): +
